Test [1] has as its system Flp-In™ T-REx™-293 cells. The format is cell-based, human.
In test [2] the test system is Flp-In™ T-REx™-293 cells. As to the kind of experiment: Succinate oxidation by digitonin permeabilized cells, Clark oxygen electrode. Type of test: cell-based, human. The conditions noted are these: AOX-expressing cells, 100 μM propyl gallate added after cyanide.
Another test relates to Drosophila mitochondria. As to the kind of experiment: Oxygen consumption of isolated mitochondrial suspensions from flies. The format is biochemical, Drosophila melanogaster. The conditions noted are these: mitochondria from AOX-expressing flies.

Regarding `CCCOC(=O)c1cc(O)c(O)c(O)c1` [n-propyl gallate], in the test with Flp-In™ T-REx™-293 cells [1], the “inhibition of residual cyanide-insensitive respiration” value was “completely inhibited” and the “inhibition of respiration in the presence of cyanide” value is recorded as “almost completely inhibited”. In addition, the “inhibition of cyanide-resistant succinate oxidation” value in the test on Flp-In™ T-REx™-293 cells [2] is “fully inhibited”. In addition, in the test on Drosophila mitochondria (cyanide present), the “sensitivity of residual cyanide-insensitive respiratory activity to AOX inhibitors” value is listed as “sensitive”. The “effect of AOX inhibitors on respiration when cyanide absent” value in the test on Drosophila mitochondria (no cyanide) was “only a small effect”.

Source of the values: US7572616B2, “Alternative oxidase and uses thereof” (priority 2005, dated 2009).
